Test results published in US7087584B2, “Detection and modulation of IAPs and NAIP for the diagnosis and treatment of proliferative disease” (Aegera Therapeutics Inc., priority 1997, dated 2006).

Experiments:
HeLa cells = test: Apoptosis and 26 kDa xiap cleavage product (Western blot) in HeLa cells; assay type: cell-based, human; conditions: 18 hours; for 26 kDa xiap cleavage product: HeLa cells, cycloheximide 20 μg/ml, TNFα 1,000 U/ml, anti-Fas antibody 1 μg/ml; for apoptosis of HeLa cells: cycloheximide 20 μg/ml or TNFα 1,000 U/ml alone
Experimental: A 26 kDa xiap-reactive band was also observed under the following experimental conditions. Jurkat cells (a transformed human T cell line) were induced to undergo apoptosis by exposure to an anti-Fas antibody (1 μg/ml). Identical cultures of Jurkat cells were exposed either to: (1) anti-Fas antibody and cycloheximide (20 μg/ml), (2) tumor necrosis factor alpha (TNF-α, at 1,000 U/ml), or (3) TNF-α and cycloheximide (20 μg/ml). All cells were harvested 6 hours after treatment began. In addition, as a negative control, anti-Fas antibody was added to an extract after the cells were harvested. The cells were harvested in SDS sample buffer, electrophoresed on a 12.5% SDS polyacrylamide gel, and electroblotted onto PVDF membranes using standard methods. The membranes were immunostained with a rabbit polyclonal anti-xiap antibody at 1:1000 for 1 hour at room temperature. Following four 15 minute washes, a goat anti-rabbit antibody conjugated to horse-radish peroxidase was applied at room temperature for 1 hour. Unbound secondary antibody was washed away, and chemiluminescent detection of xiap protein was performed. […] In addition, a novel, approximately 26 kDa xiap-reactive band was also observed in apoptotic cell extracts, but not in the control, untreated cell extracts (FIG. 13).
Cleavage of xiap occurs in a variety of cell types, including other cancer cell lines such as HeLa. […] HeLa cells were treated with either: (1) cyclohexamide (20 μg/ml), (2) anti-Fas antibody (1 μg/ml), (3) anti-Fas antibody (1 μg/ml) and cyclohexamide (20 μg/ml), (4) TNFα (1,000 U/ml), or (5) TNFα (1,000 U/ml) and cyclohexamide (20 μg/ml). All cells were harvested 18 hours after treatment began. As above, anti-Fas antibody was added to an extract after the cells were harvested. HeLa cells were harvested, and the Western blot was probed under the same conditions as used to visualize xiap-reactive bands from Jurkat cell samples. A 26 kDa xiap band was again seen in the apoptotic cell preparations (FIG. 14). Furthermore, the degree of xiap cleavage correlated positively with cellular exposure to apoptotic triggers.
The time course over which the 26 kDa cleavage product accumulates was examined by treating HeLa and Jurkat cells with anti-Fas antibody (1 μg/ml) and harvesting them either immediately, or 1, 2, 3, 5, 10, or 22 hours after treatment. Protein extracts were prepared and Western blot analysis was performed as described above.

[1] = tested on: Cisplatin-resistant (C13) human ovarian epithelial cells; test: Apoptosis (nuclear staining, DNA ladders, TUNEL) in cisplatin-resistant ovarian cancer cells; assay type: cell-based; conditions: TGFβ 20 ng/ml
Experimental: (§1) Cisplatin-sensitive (OV2008) and -resistant (C13) human ovarian epithelial cells were cultured in a chemically-defined medium at 37° C. for up to 48 hours in the presence or absence of TGFβ (20 ng/ml), taxol (0–1.0 μM) or cisplatin (0–30 μM). At the end of the culture period, cells were either fixed for immunocytochemistry and TUNEL analyses, or snap frozen for subsequent extraction for IAP mRNA and proteins analyses.
(§2) Human ovarian epithelial cancer cells were fixed (4% formalin in PBS; 10 min. RT), washed in PBS, resuspended in Hoescht 33248 stain (0.1 μg/ml PBS, 10 min) washed again and spotted onto slides for microscopy. Nuclear staining was observed and photographed using a Zeiss fluorescent microscope equipped with an FITC filter. Apoptotic cells were identified by typical nuclear morphology, and counted using randomly selected fields and numbered photographic slides to avoid bias during counting.
Cellular DNA was extracted using the Qiagen Blood Amt kit. DNA was quantified by ethidium bromide fluorescence. DNA (0.5 μg) was then end labelled by incubating (20 min, RT) with Klenow enzyme (2 U in 10 mM Tris+5 mM MgCl2) and 0.1 μCi [α32P]dCTP. […] The gel was then dried (2 hr, no heat) and exposed to a Bio-Rad phosphoimager screen to densitometrically quantify low molecular weight DNA (<15 kBp) and subsequently to x-ray film at −80° C. […]

[2] = tested on: Cisplatin-sensitive (OV2008) human ovarian epithelial cells; test: Apoptosis (nuclear staining, DNA ladders, TUNEL) in cisplatin-sensitive ovarian cancer cells; assay type: cell-based; conditions: for incidence of apoptosis: cisplatin 0-30 μM or taxol 0-1.0 μM, up to 48 hours
Experimental: as §1, §2
Cellular DNA was extracted using the Qiagen Blood Amt kit. DNA was quantified by ethidium bromide fluorescence. DNA (0.5 μg) was then end labelled by incubating (20 min, RT) with Klenow enzyme (2 U in 10 mM Tris+5 mM MgCl2) and 0.1 μCi [α32P]dCTP. Unincorporated nucleotides were removed with the Qiagen nucleotide removal kit and samples were resolved by Tris-acetate-EDTA agarose (1.8%) gel electrophoresis. The gel was then dried (2 hr, no heat) and exposed to a Bio-Rad phosphoimager screen to densitometrically quantify low molecular weight DNA (<15 kBp) and subsequently to x-ray film at −80° C.
To identify cell death using the in situ cell death detection kit (Boehringer-Mannheim), slides prepared for histology were treated (20 min. 37° C.) with terminal tranferase in the presence of FITC-conjugated dUTP.

HIAP-2 mRNA in C13 cells = test: Northern blot for HIAP-2 mRNA in C13 cells; assay type: cell-based, human
Experimental: as §1
(§3) Total RNA from ovarian surface epithelial cancer cells by using RNeasy Kit (Qiagen). The RNA samples (10–15 μg) were quantified spectrophotometrically and size-fractioned by electrophoresis on formaldehyde-agarose gels (1.1%) containing 1 μg/ml ethidium bromide to confirm even loading of RNA samples and adequate separation of 28S and 18S ribosomal bands. The RNAs bands were blotted onto a nylon membrane and cross-linked by UV light. Membranes were prehybridized in 50% formamide, saline sodium citrate (SSC; 750 mM NaCl, 75 mM Na citrate), 1×Denhardt's solution, 1% SDS, 4 mM EDTA and 100 μg/ml sheared salmon sperm DNA for 4 h at 42° C. Hybridization was performed overnight at 42° C. with 20 million cpm of ^32P-labelled IAP cDNA probes (rat Naip, rat Xiap or human Hiap-2) added to the prehybridization buffer. […] Data were normalized by the respective 28S and expressed as a percentage of the control (defined as 100%).

[3] = tested on: HIAP-2 mRNA in OV2008 cells; test: Northern blot for HIAP-2 mRNA in OV2008 cells; assay type: cell-based, human
Experimental: as §1, §3

[4] = tested on: XIAP protein in C13 cells; test: Western blot for XIAP protein in C13 cells; assay type: cell-based, human
Experimental: as §1
(§4) Protein extracts were prepared from human surface epithelial cancer cells sonicated (8 s/cycle, 3 cycles) on ice in sucrose buffer (0.25 M sucrose, 0.025 M NaCl, 1 mM EGTA and 15 mM Tris-HCl pH 6.8, supplemented with 1 mM PMSF, 2 μg/ml of leupeptin and 5 μg/ml of aprotinin. The sonicates were centrifuged at 13,000×g for 10 min, the supernatants were collected and stored at −20° C. until electrophoretic analyses were performed. Protein concentration was determined by Bio-Rad Protein Assay. Proteins (10–30 μg) were resolved by one-dimensional SDS-PAGE, and electrophoretically transferred to nitrocellulose membrane. Membranes were blocked with 5% non-fat milk, and subsequently incubated with rabbit polyclonal antibody for IAP anti-human Hiap-2ΔE(960529; 1:1000 dilution), anti-human NAIP E1.0 (951015; 1:1000 dilution) or anti-human Xiap (1:1000 dilution) diluted in TBST (10 mM Tris-buffered saline, 0.1% Tween-20, pH 7.5) containing 5% milk. […]

[5] = tested on: XIAP protein in OV2008 cells; test: Western blot for XIAP protein in OV2008 cells; assay type: cell-based, human
Experimental: as §1, §4

[6] = tested on: HIAP-2 protein in OV2008 cells; test: Western blot for HIAP-2 protein in OV2008 cells; assay type: cell-based, human
Experimental: as §1, §4

[7] = tested on: HIAP-2 protein in C13 cells; test: Western blot for HIAP-2 protein in C13 cells; assay type: cell-based, human
Experimental: as §1, §4

## TNFα
HeLa cells
  26 kDa xiap cleavage product: little cleavage product
  apoptosis of HeLa cells: only minor apoptosis

## TGFβ: TGFβ (20 ng/ml) added to ovarian cancer cell cultures
[1]
  induction of apoptosis: not in C13
[2]; TGFβ 20 ng/ml
  induction of apoptosis: induced apoptosis
HIAP-2 mRNA in C13 cells; C13 cells, TGFβ 20 ng/ml
  HIAP-2 mRNA: not C13
[3]; OV2008 cells, TGFβ 20 ng/ml
  HIAP-2 mRNA: decreased
[4]; cisplatin-resistant cells, TGFβ 20 ng/ml
  influence on Xiap protein content: only marginal
[5]; cisplatin-sensitive cells, TGFβ 20 ng/ml
  influence on Xiap protein content: markedly suppressed

## CC(=O)O[C@H]1C(=O)[C@@]2(C)[C@H]([C@H](OC(=O)c3ccccc3)[C@]3(O)C[C@H](OC(=O)[C@H](O)[C@@H](NC(=O)c4ccccc4)c4ccccc4)C(C)=C1C3(C)C)[C@]1(OC(C)=O)CO[C@@H]1C[C@@H]2O [Taxol]
[2]
  incidence of apoptosis: induced apoptosis
HIAP-2 mRNA in C13 cells; cisplatin-resistant cells, Taxol 0.2 μM
  suppression of HIAP-2 mRNA abundance: ineffective
[6]; Taxol
  content of approx. 45 kDa immunoreactive fragment of HIAP-2: decreased
[6]; Taxol 0.04-1.0 μM, concentration-dependent, more pronounced than in resistant cells
  HIAP-2 protein level: decreased
[7]; Taxol
  content of approx. 45 kDa immunoreactive fragment of HIAP-2: increased
[7]; Taxol 0.04-1.0 μM, concentration-dependent, less pronounced than in sensitive cells
  HIAP-2 protein level: decreased
[3]; cisplatin-sensitive cells, Taxol 0.2 μM
  suppression of HIAP-2 mRNA abundance: approx. 80%
[4]; C13 cells, Taxol 0.04-1.0 μM, concentration-dependent, less pronounced than in sensitive cells
  XIAP protein level: decreased
[5]; OV2008 cells, Taxol 0.04-1.0 μM, concentration-dependent, more pronounced than in resistant cells
  XIAP protein level: decreased

## C[C@@H]1C[C@@H]([C@H](O)CC2CC(=O)NC(=O)C2)C(=O)[C@@H](C)C1 [cycloheximide]
HeLa cells
  26 kDa xiap cleavage product: little cleavage product
  apoptosis of HeLa cells: only minor apoptosis

## N.N.[Cl][Pt][Cl] [Cisplatin, cisplatin]
[2]
  incidence of apoptosis: concentration-dependent increase
